{"source": "patent US20150291598A1", "about": "(NOVARTIS AG, priority 2012, published 2015)", "tested_on": "P. falciparum (NF54 or 3D7 strain)", "assay": "Assay for P. falciparum proliferation in infected human blood cells (SYBR Green)", "type": "cell-based, Plasmodium falciparum", "conditions": "Plasmodium falciparum, Erythrocyte, 72 h, NF54 or 3D7 infected human erythrocytes, 72 hours; read-out: EC50 (nM), inhibitory efficacy in delaying P. falciparum proliferation in infected human blood cells", "protocol": "Assay for P. falciparum Proliferation in Infected Human Blood Cells\nCompounds of the invention can be assayed to measure their capacity to inhibit proliferation of P. falciparum parasitemia in infected red blood cells. This parasite proliferation assay measures the increase in parasite DNA content using a DNA intercalating dye, SYBR Green® (INVITROGEN®) which has a high affinity for double stranded DNA.\nNF54 or 3D7 P. falciparum strain is grown in complete culturing media until parasitemia reaches 3% to 8% with O+ human erythrocytes. […] 20 μl of screening media is dispensed into 384 well assay plates. 50 nl of compounds of the invention (in DMSO), including antimalarial controls (mefloquine, pyrimethamine and artemisinin), are then transferred into the assay plates, as well as DMSO alone to serve as a negative control for inhibition. Then 30 μl of a suspension of a NF54 or 3D7 P. falciparum infected erythrocytes in screening media is dispensed into the assay plates such that the final hematocrit is 2.5% with a final parasitemia of 0.3%. The plates are placed in a 37° C. incubator for 72 hours in a low oxygen environment containing 93% N2, 4% CO2, and 3% O2 gas mixture. 10 μl of lysis buffer (saponin, triton-X, EDTA) containing a 10× solution of SYBR Green I® in RPMI media is dispensed into the plates. The plates are lidded and kept at room temperature overnight for the lysis of the infected red blood cells. The fluorescence intensity is measured (excitation […], emission 530 nm) using the Envision™ system (Perkin Elmer).", "data": [{"smiles": "CN(C(=O)c1cn2c(-c3ccc4c(cnn4C)c3)cnc2cn1)c1ccc(Cl)nc1", "note": "[Compound 489, N-(6-chloropyridin-3-yl)-N-methyl-3-(1-methyl-1H-indazol-5-yl)imidazo[1,2-a]pyrazine-6-carboxamide]", "values": [{"measurement": "EC50", "result": 522, "unit": "nM"}]}, {"smiles": "CN(C(=O)c1cn2c(-c3ccc(-c4nncs4)cc3)cnc2cn1)c1ccc(C#N)cc1", "note": "[Compound 493, N-(4-cyanophenyl)-N-methyl-3-[4-(1,3,4-thiadiazol-2-yl)phenyl]imidazo[1,2-a]pyrazine-6-carboxamide]", "values": [{"measurement": "EC50", "result": 529, "unit": "nM"}]}, {"smiles": "CCOC(=O)Nc1ccc(-c2cnc3cnc(C(=O)N(C)c4ccc(C#N)cc4)cn23)cc1", "note": "[Compound 254, ethyl N-(4-{6-[(4-cyanophenyl)(methyl)carbamoyl]imidazo[1,2-a]pyrazin-3-yl}phenyl)carbamate]", "values": [{"measurement": "EC50", "result": 67, "unit": "nM"}]}, {"smiles": "COC(=O)Nc1ccc(-c2cnc3cnc(CN(C)c4ccc(C)cn4)cn23)cc1", "note": "[Compound 318, methyl N-[4-(6-{[methyl(5-methylpyridin-2-yl)amino]methyl}imidazo[1,2-a]pyrazin-3-yl)phenyl]carbamate]", "values": [{"measurement": "EC50", "result": 2310, "unit": "nM"}]}, {"smiles": "CN(C(=O)c1cn2c(-c3ccc(OC(F)F)cc3)cnc2cn1)c1ccc(C#N)cn1", "note": "[Compound 85, N-(5-cyanopyridin-2-yl)-3-[4-(difluoromethoxy)phenyl]-N-methylimidazo[1,2-a]pyrazine-6-carboxamide]", "values": [{"measurement": "EC50", "result": 1100, "unit": "nM"}]}, {"smiles": "CN(C(=O)c1cn2c(-c3ccc(C(F)(F)F)cc3)cnc2cn1)c1ccc(C(F)(F)F)cc1", "note": "[Compound 500, N-methyl-N,3-bis[4-(trifluoromethyl)phenyl]imidazo[1,2-a]pyrazine-6-carboxamide]", "values": [{"measurement": "EC50", "result": 353, "unit": "nM"}]}, {"smiles": "CN(C(=O)c1ccc(Cl)cc1)c1cn2c(-c3ccc(C(F)(F)F)cc3)cnc2cn1", "note": "[Compound 259, 4-chloro-N-methyl-N-{3-[4-(trifluoromethyl)phenyl]imidazo[1,2-a]pyrazin-6-yl}benzamide]", "values": [{"measurement": "EC50", "result": 414, "unit": "nM"}]}, {"smiles": "CCN(CC)C(=O)c1ccc(-c2cnc3cnc(C(=O)N(C)c4ccc(C#N)cc4)cn23)cc1", "note": "[Compound 188, N-(4-cyanophenyl)-3-[4-(diethylcarbamoyl)phenyl]-N-methylimidazo[1,2-a]pyrazine-6-carboxamide]", "values": [{"measurement": "EC50", "result": "> 10000", "unit": "nM"}]}, {"smiles": "CN(C(=O)c1cn2c(-c3ccc(C(F)(F)F)cc3)cnc2cn1)c1cccc(F)n1", "note": "[Compound 86, N-(6-fluoropyridin-2-yl)-N-methyl-3-[4-(trifluoromethyl)phenyl]imidazo[1,2-a]pyrazine-6-carboxamide]", "values": [{"measurement": "EC50", "result": 2010, "unit": "nM"}]}, {"smiles": "CNC(=O)c1ccc(-c2cnc3cnc(C(=O)N(C)c4ccc(C#N)cc4)cn23)cn1", "note": "[Compound 331, 5-{6-[(4-cyanophenyl)(methyl)carbamoyl]imidazo[1,2-a]pyrazin-3-yl}-N-methylpyridine-2-carboxamide]", "values": [{"measurement": "EC50", "result": 1740, "unit": "nM"}]}, {"smiles": "CN(C(=O)c1cn2c(-c3cccc(F)n3)cnc2cn1)c1ccc(C#N)cc1", "note": "[Compound 351, N-(4-cyanophenyl)-3-(6-fluoropyridin-2-yl)-N-methylimidazo[1,2-a]pyrazine-6-carboxamide]", "values": [{"measurement": "EC50", "result": 5620, "unit": "nM"}]}, {"smiles": "CC(C)S(=O)(=O)Nc1ccc(-c2cnc3cnc(C(=O)N(C)c4ccc(C#N)cc4)cn23)cc1", "note": "[Compound 363, N-(4-cyanophenyl)-N-methyl-3-[4-(propane-2-sulfonamido)phenyl]imidazo[1,2-a]pyrazine-6-carboxamide]", "values": [{"measurement": "EC50", "result": 7020, "unit": "nM"}]}, {"smiles": "CN(C)CCOc1ccc(-c2cnc3cnc(C(=O)N(C)c4ccc(C#N)cc4)cn23)cc1", "note": "[Compound 284, N-(4-cyanophenyl)-3-{4-[2-(dimethylamino)ethoxy]phenyl}-N-methylimidazo[1,2-a]pyrazine-6-carboxamide]", "values": [{"measurement": "EC50", "result": 947, "unit": "nM"}]}, {"smiles": "CON(C)C(=O)c1ccc(-c2cnc3cnc(C(=O)N(C)c4ccc(C#N)cc4)cn23)cc1", "note": "[Compound 185, N-(4-cyanophenyl)-3-{4-[methoxy(methyl)carbamoyl]phenyl}-N-methylimidazo[1,2-a]pyrazine-6-carboxamide]", "values": [{"measurement": "EC50", "result": 7170, "unit": "nM"}]}, {"smiles": "CN(C)c1ccc(-c2cnc3cnc(C(=O)N(C)c4ccc(F)c(F)c4)cn23)cc1", "note": "[Compound 159, N-(3,4-difluorophenyl)-3-[4-(dimethylamino)phenyl]-N-methylimidazo[1,2-a]pyrazine-6-carboxamide]", "values": [{"measurement": "EC50", "result": 368, "unit": "nM"}]}, {"smiles": "CN(C(=O)c1cn2c(-c3ccc(C(F)(F)F)cc3)cnc2cn1)c1ccc(C(C)(C)C)nc1", "note": "[Compound 384, N-(6-tert-butylpyridin-3-yl)-N-methyl-3-[4-(trifluoromethyl)phenyl]imidazo[1,2-a]pyrazine-6-carboxamide]", "values": [{"measurement": "EC50", "result": 6620, "unit": "nM"}]}, {"smiles": "COc1ncccc1N(C)C(=O)c1cn2c(-c3ccc(C(F)(F)F)cc3)cnc2cn1", "note": "[Compound 492, N-(2-methoxypyridin-3-yl)-N-methyl-3-[4-(trifluoromethyl)phenyl]imidazo[1,2-a]pyrazine-6-carboxamide]", "values": [{"measurement": "EC50", "result": 377, "unit": "nM"}]}, {"smiles": "CC(C)S(=O)(=O)c1ccc(-c2cnc3cnc(C(=O)N(C)c4ccc(C#N)cc4)cn23)cc1", "note": "[Compound 152, N-(4-cyanophenyl)-N-methyl-3-[4-(propane-2-sulfonyl)phenyl]imidazo[1,2-a]pyrazine-6-carboxamide]", "values": [{"measurement": "EC50", "result": 3170, "unit": "nM"}]}, {"smiles": "CN(C(=O)c1cn2c(-c3cccc(C(F)(F)F)c3)cnc2cn1)c1ccc(C#N)cc1", "note": "[Compound 175, N-(4-cyanophenyl)-N-methyl-3-[3-(trifluoromethyl)phenyl]imidazo[1,2-a]pyrazine-6-carboxamide]", "values": [{"measurement": "EC50", "result": 3280, "unit": "nM"}]}, {"smiles": "CN(C)c1ccc(-c2cnc3cnc(C(=O)N(C)c4ccc(S(C)(=O)=O)cc4)cn23)cc1", "note": "[Compound 164, 3-[4-(dimethylamino)phenyl]-N-(4-methanesulfonylphenyl)-N-methylimidazo[1,2-a]pyrazine-6-carboxamide]", "values": [{"measurement": "EC50", "result": 961, "unit": "nM"}]}, {"smiles": "CN(C(=O)c1cn2c(-c3ccc(C(F)(F)F)cc3)cnc2cn1)c1ccccc1C(F)(F)F", "note": "[Compound 171, N-methyl-N-[2-(trifluoromethyl)phenyl]-3-[4-(trifluoromethyl)phenyl]imidazo[1,2-a]pyrazine-6-carboxamide]", "values": [{"measurement": "EC50", "result": 4010, "unit": "nM"}]}, {"smiles": "CN(C(=O)N1CCC(C)(C)CC1)c1cn2c(-c3ccc(C(F)(F)F)cc3)cnc2cn1", "note": "[Compound 294, N,4,4-trimethyl-N-{3-[4-(trifluoromethyl)phenyl]imidazo[1,2-a]pyrazin-6-yl}piperidine-1-carboxamide]", "values": [{"measurement": "EC50", "result": 2120, "unit": "nM"}]}, {"smiles": "CN(C(=O)c1cn2c(-c3cc4ccccc4[nH]3)cnc2cn1)c1ccc(-c2cc3ccccc3[nH]2)nc1", "note": "[Compound 319, 3-(1H-indol-2-yl)-N-[6-(1H-indol-2-yl)pyridin-3-yl]-N-methylimidazo[1,2-a]pyrazine-6-carboxamide]", "values": [{"measurement": "EC50", "result": 3140, "unit": "nM"}]}, {"smiles": "CNC(=O)c1ccc(-c2cnc3cnc(C(=O)N(C)c4ccc(F)cc4)cn23)cc1", "note": "[Compound 244, N-(4-fluorophenyl)-N-methyl-3-[4-(methylcarbamoyl)phenyl]imidazo[1,2-a]pyrazine-6-carboxamide]", "values": [{"measurement": "EC50", "result": 290, "unit": "nM"}]}, {"smiles": "CN(C(=O)c1cn2c(-c3ccc(C(F)(F)F)cc3)cnc2cn1)c1cc(F)ccn1", "note": "[Compound 490, N-(4-fluoropyridin-2-yl)-N-methyl-3-[4-(trifluoromethyl)phenyl]imidazo[1,2-a]pyrazine-6-carboxamide]", "values": [{"measurement": "EC50", "result": 293, "unit": "nM"}]}, {"smiles": "Cc1ccc(-c2cnc3cnc(C(=O)N(C)c4ccc(Cl)cc4Cl)cn23)cc1", "note": "[Compound 61, N-(2,4-dichlorophenyl)-N-methyl-3-(4-methylphenyl)imidazo[1,2-a]pyrazine-6-carboxamide]", "values": [{"measurement": "EC50", "result": 1370, "unit": "nM"}]}, {"smiles": "CN(C(=O)c1cn2c(-c3ccc(C(F)(F)F)cc3)cnc2cn1)c1ccc(-c2ccccc2)nc1", "note": "[Compound 499, N-methyl-N-(6-phenylpyridin-3-yl)-3-[4-(trifluoromethyl)phenyl]imidazo[1,2-a]pyrazine-6-carboxamide]", "values": [{"measurement": "EC50", "result": 4510, "unit": "nM"}]}, {"smiles": "COCCN(C(=O)c1cn2c(-c3ccc(C(F)(F)F)cc3)cnc2cn1)c1ccc(C#N)cc1", "note": "[Compound 238, N-(4-cyanophenyl)-N-(2-methoxyethyl)-3-[4-(trifluoromethyl)phenyl]imidazo[1,2-a]pyrazine-6-carboxamide]", "values": [{"measurement": "EC50", "result": 152, "unit": "nM"}]}, {"smiles": "CN(C(=O)c1cn2c(-c3ccc(C(F)(F)F)cc3)cnc2cn1)c1nccn1C", "note": "[Compound 174, N-methyl-N-(1-methyl-1H-imidazol-2-yl)-3-[4-(trifluoromethyl)phenyl]imidazo[1,2-a]pyrazine-6-carboxamide]", "values": [{"measurement": "EC50", "result": 4750, "unit": "nM"}]}, {"smiles": "CN(C(=O)c1cn2c(-c3cccnc3)cnc2cn1)c1ccc(C#N)cc1", "note": "[Compound 195, N-(4-cyanophenyl)-N-methyl-3-(pyridin-3-yl)imidazo[1,2-a]pyrazine-6-carboxamide]", "values": [{"measurement": "EC50", "result": "> 10000", "unit": "nM"}]}, {"smiles": "CN(C(=O)c1cn2c(-c3ccc(C(F)(F)F)cc3)cnc2cn1)c1ncc(Cl)cn1", "note": "[Compound 93, N-(5-chloropyrimidin-2-yl)-N-methyl-3-[4-(trifluoromethyl)phenyl]imidazo[1,2-a]pyrazine-6-carboxamide]", "values": [{"measurement": "EC50", "result": 4640, "unit": "nM"}]}, {"smiles": "CN(C(=O)c1cn2c(-c3ccc(C(F)(F)F)cc3)cnc2cn1)c1cccc2nncn12", "note": "[Compound 416, N-methyl-N-{[1,2,4]triazolo[4,3-a]pyridin-5-yl}-3-[4-(trifluoromethyl)phenyl]imidazo[1,2-a]pyrazine-6-carboxamide]", "values": [{"measurement": "EC50", "result": "> 10000", "unit": "nM"}]}]}
